In one assay the test system is CEM/A7. Description: Growth of leukaemia cell line CEM/A7. The assay is classed as cell-based, human. The text has this: (§1) Therefore, C4 can overcome drug resistance which is a common problem in acute leukemia.
The test system of a further assay is mouse thyoma E3 cells. Description: Growth of mouse thymoma E3 cells. Type of assay: cell-based. To be noted: read-out: Ic50 concentration.
Source text: as §1

The subject of the next assay is CEM/A7R. Description: Growth of drug resistant leukaemia cell line CEM/A7R. The assay is classed as cell-based, human.
Source text: Thus, this cell line is normally resistant to a variety of naturally derived chemotherapeutic agents.
as §1

A further assay relates to JNK/SAPK. Description: JNK activation in LS174T cells. The assay is classed as cell-based, human. Particulars: 3 hours; C3 5, 10 μg/ml; Cisplatin 25, 50 μg/ml. On the procedure:
(§2) P38 was not affected by C3 but was activated by Cisplatin.
The role of JNK and p38 activation in anti-Cripto-1 mediated apoptosis was investigated in colon cancer LS17T cell line using different concentration of Mabs and various times of incubation. In particular, JNK/SPAK was activated in LS174T cells following 3 hours incubation with anti-Cripto-1 Mab in a dose dependent manner (FIG. 8A). JNK activation was at the highest level after 24 hours of exposure (FIGS. 8B and 8D), and declined within 48 h, returning to basal level at 72 hours of incubation (FIG. 8D) indicating JNK activation by anti-Cripto1 antibodies is time dependent

The next assay concerns p38. Description: p38 activation in LS174T cells. Type of assay: cell-based, human. To be noted: 3 hours; C3 5, 10 μg/ml; Cisplatin 25, 50 μg/ml. The procedure:
as §2
The stress related p38 pathway was also investigated in LS174T cells following anti-Cripto-1 Mab treatment. p38 activation occurred following 48 hours of Mab exposure, when the level of activated JNK declined. p38 was further activated at 72 hours when elevated JNK returned to basal level (FIG. 8D). […] The potentiation of Cisplatin cytotoxicity by anti-Cripto-1 Mabs (FIG. 1) is accompanied by an increase in JNK phosphorylation (FIG. 8A) and p38 MAPK (FIG. 8B).

In brackets after ≈: the same amount, converted by molar mass.

As for `COc1cccc2c1C(=O)c1c(O)c3c(c(O)c1C2=O)C[C@@](O)(C(=O)CO)C[C@@H]3O[C@H]1C[C@H](N)[C@@H](O)[C@H](C)O1` [Epirubicin], the “resistance to Epirubicin compared to E3” value is reported as “around 80 fold” with CEM/A7 and approximately 40 fold with CEM/A7R. The IC50 with mouse thyoma E3 cells was 0.02 µg/mL (≈ 0.0368 µM).

For the molecule `N.N.[Cl][Pt][Cl]` [Cisplatin], the JNK activation result with JNK/SAPK is “induced”. Also, the p38 activation entry with p38 is “activated”.

The values are drawn from patent publication US7318924B2, “Antibodies against cancer” (The Austin Research Institute, priority 2001, dated 2008).
